In patent publication US20240360148A1 (SUVALENT THERAPEUTICS, INC., priority 2021, published 2024):

What follows are compounds tested against SAE1 (Homo sapiens (Human), UniProt Q9UBE0+Q9UBT2) (assay: SAE High Throughput Biochemical Assay (HTRF), 15 min preincubation). Settings: read-out: 15 min preincubation HTRF IC50 (μM) Ave, SAE1 12.5 nM, ATP 100 μM.
Procedure: Assay buffer was prepared [50 mM HEPES, pH 7.5, 0.1% BSA and 10 mM MgCl2] as was the Stop Buffer [100 mM HEPES, pH 7.5, 0.05% Tween20, and 410 mM KF]. The 2×Reaction Buffer [80 nM SUMO-GST, 80 nM UBC9-His, 200 μM ATP and diluted in Assay Buffer] and Antibody Reaction Mix [13.34 nM anti-GSTXL665, 1.66 nM anti-His EuK and Diluted in Stop Buffer] were also prepared. Compounds were dissolved at 200×in DMSO in a 384-well plate. Serial dilutions were performed in DMSO for each compound, and then each concentration was diluted another 50-fold in Assay Buffer, to 4× the final concentration. 2.5 μL of each concentration was transferred into its own well in a 384-well plate. SAE1 was then diluted to 4× in Assay Buffer, and 2.5 μL of 4×SAE1 was mixed into each compound-containing well. After incubating for 15 minutes at RT, 5 μL of 2×Reaction Buffer was mixed into every well. Then after another 45 minutes at RT, 10 μL of Antibody Reaction Mix was added and mixed into every well. This plate was then read on an HTRF-compatible plate reader after 2 hours at RT, and again after sitting at RT overnight. [Final Component Concentrations: SAE1: 12.5 nM; SUMO-GST: 40 nM; UBC9-His: 40 nM; Anti-GST-XL665: 6.67 nM; Anti-His-EuK: 0.83 nM; and ATP: 100 μM] Alternatively, the compounds are tested at a single concentration of 25 micromolar and the percent of control is measured.

Chain of SAE1 (Q9UBE0 whole entry): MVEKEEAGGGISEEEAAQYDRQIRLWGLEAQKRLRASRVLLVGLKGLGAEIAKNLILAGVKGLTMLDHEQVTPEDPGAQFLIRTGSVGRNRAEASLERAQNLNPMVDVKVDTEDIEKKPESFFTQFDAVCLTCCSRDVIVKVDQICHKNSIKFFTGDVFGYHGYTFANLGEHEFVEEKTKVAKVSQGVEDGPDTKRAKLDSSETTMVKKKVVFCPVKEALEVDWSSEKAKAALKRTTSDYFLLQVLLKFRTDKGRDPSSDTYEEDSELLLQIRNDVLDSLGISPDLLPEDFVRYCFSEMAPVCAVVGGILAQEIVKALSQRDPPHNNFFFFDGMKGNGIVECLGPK
Chain of SAE1 (Q9UBT2 whole entry): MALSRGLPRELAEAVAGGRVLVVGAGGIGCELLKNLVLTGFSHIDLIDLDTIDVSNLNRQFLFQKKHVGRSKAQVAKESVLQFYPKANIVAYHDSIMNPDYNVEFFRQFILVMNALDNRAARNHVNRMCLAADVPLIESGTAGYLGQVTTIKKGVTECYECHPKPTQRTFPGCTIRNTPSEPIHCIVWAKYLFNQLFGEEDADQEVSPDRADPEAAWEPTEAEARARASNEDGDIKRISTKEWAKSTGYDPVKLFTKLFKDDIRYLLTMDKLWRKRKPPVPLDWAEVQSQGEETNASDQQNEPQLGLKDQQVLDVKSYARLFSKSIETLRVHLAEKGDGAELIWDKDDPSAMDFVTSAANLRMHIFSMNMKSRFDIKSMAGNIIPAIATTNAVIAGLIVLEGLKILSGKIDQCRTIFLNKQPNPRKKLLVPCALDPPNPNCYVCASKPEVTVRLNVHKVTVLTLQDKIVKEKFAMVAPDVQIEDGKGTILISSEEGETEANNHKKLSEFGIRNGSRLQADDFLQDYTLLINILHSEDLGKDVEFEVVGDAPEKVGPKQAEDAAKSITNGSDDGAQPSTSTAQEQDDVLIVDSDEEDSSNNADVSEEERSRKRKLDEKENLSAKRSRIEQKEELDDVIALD

Compound | IC50 [µM]
C=CC(=O)N1Cc2sc(C#N)cc2C(c2ccc(N)cc2-c2cn(CC)nc2C(F)(F)F)C1 (stereo not drawn) [Compound 228] | 2.07
CN(C)C/C=C/C(=O)N1Cc2sc(C#N)cc2[C@H](c2ccccc2C#N)C1 [Example 4, (S, E)-4-(2-Cyanophenyl)-6-(4-(dimethylamino)but-2-enoyl)-4,5,6,7-tetrahydrothieno[2,3-c]pyridine-2-carbonitrile] | > 25
CCn1cc(-c2ccccc2[C@@H]2CN(C(=O)/C=C/CN3CCC[C@H]3C(=O)O)Cc3sc(C#N)cc32)c(C(F)(F)F)n1 [Example 6, ((E)-4-((S)-2-cyano-4-(2-(1-ethyl-3-(trifluoromethyl)-1 H-pyrazol-4-yl)phenyl)-4,7-dihydrothieno[2,3-c]pyridin-6(5H)-yl)-4-oxobut-2-en-1-yl)proline] | 7.43
CCn1cc(-c2ccccc2[C@@H]2CN(C(=O)/C=C/CN(C)C)Cc3sc(C#N)cc32)c(C(C)(F)F)n1 [Example 10, (S, E)-4-(2-(3-(1,1-difluoroethyl)-1-ethyl-1H-pyrazol-4-yl)phenyl)-6-(4-(dimethylamino)but-2-enoyl)-4,5,6,7-tetrahydrothieno[2,3-c]pyridine-2-carbonitrile] | 13.4
CCn1cc(-c2ccccc2[C@@H]2CN(C(=O)/C=C/CCN(C)C)Cc3sc(C#N)cc32)c(C(F)(F)F)n1 [Example 16] | 18.1
CN(C)C/C=C/C(=O)N1Cc2sc(C#N)cc2[C@H](c2ccccc2-c2cn(CC(F)F)nc2C(F)(F)F)C1 [Example 18, (S,E)-4-(2-(1-(2,2-difluoroethyl)-3-(trifluoromethyl)-1 H-pyrazol-4-yl)phenyl)-6-(4-(dimethylamino)but-2-enoyl)-4,5,6,7-tetrahydrothieno[2,3-c]pyridine-2-carbonitrile] | 8.99
CN(C)C/C=C/C(=O)N1Cc2sc(C#N)cc2[C@H](c2ccccc2-c2cn(CC(F)(F)F)nc2C(F)(F)F)C1 [Example 19, (S, E)-6-(4-(Dimethylamino)but-2-enoyl)-4-(2-(1-(2,2,2-trifluoroethyl)-3-(trifluoromethyl)-1 H-pyrazol-4-yl)phenyl)-4,5,6,7-tetrahydrothieno[2,3-c]pyridine-2-carbonitrile] | 6.12
CCn1cc(-c2ccccc2[C@@H]2CN(C(=O)/C=C/C(c3ccccc3)N(C)C)Cc3sc(C#N)cc32)c(C(F)(F)F)n1 (stereo partly drawn) [Example 26, (4S)-6-((E)-4-(Dimethylamino)-4-phenylbut-2-enoyl)-4-(2-(1-ethyl-3-(trifluoromethyl)-1 H-pyrazol-4-yl)phenyl)-4,5,6,7-tetrahydrothieno[2,3-c]pyridine-2-carbonitrile] | 7.92
CCn1cc(-c2ccccc2[C@@H]2CN(C(=O)/C=C/CN(C)Cc3ccccc3)Cc3sc(C#N)cc32)c(C(F)(F)F)n1 [Example 33, (S, E)-6-(4-(benzyl(methyl)amino)but-2-enoyl)-4-(2-(1-ethyl-3-(trifluoromethyl)-1 H-pyrazol-4-yl)phenyl)-4,5,6,7-tetrahydrothieno[2,3-c]pyridine-2-carbonitrile] | 8.44
CCn1cc(-c2ccccc2[C@@H]2CN(C(=O)/C=C/CN3CCC(c4ccccc4)C3)Cc3sc(C#N)cc32)c(C(F)(F)F)n1 (stereo partly drawn) [Example 35, (4S)-4-(2-(1-ethyl-3-(trifluoromethyl)-1 H-pyrazol-4-yl)phenyl)-6-((E)-4-(3-phenylpyrrolidin-1-yl)but-2-enoyl)-4,5,6,7-tetrahydrothieno[2,3-c]pyridine-2-carbonitrile] | > 25
CCn1cc(-c2ccccc2[C@@H]2CN(C(=O)/C=C/C(C)(C)N)Cc3sc(C#N)cc32)c(C(F)(F)F)n1 [Example 37, (S, E)-6-(4-amino-4-methylpent-2-enoyl)-4-(2-(1-ethyl-3-(trifluoromethyl)-1 H-pyrazol-4-yl)phenyl)-4,5,6,7-tetrahydrothieno[2,3-c]pyridine-2-carbonitrile] | > 25
CCn1cc(-c2ccccc2[C@@H]2CN(C(=O)/C=C/C(C)(C)NC)Cc3sc(C#N)cc32)c(C(F)(F)F)n1 [Example 38, (S, E)-4-(2-(1-ethyl-3-(trifluoromethyl)-1 H-pyrazol-4-yl)phenyl)-6-(4-methyl-4-(methylamino)pent-2-enoyl)-4,5,6,7-tetrahydrothieno[2,3-c]pyridine-2-carbonitrile] | > 25
CCn1cc(-c2ccccc2[C@@H]2CN(C(=O)/C=C/[C@H](C)N)Cc3sc(C#N)cc32)c(C(F)(F)F)n1 [Example 49, (S)-6-((S,E)-4-aminopent-2-enoyl)-4-(2-(1-ethyl-3-(trifluoromethyl)11 H-pyrazol-4-yl)phenyl)-4,5,6,7-tetrahydrothieno[2,3-c]pyridine-2-carbonitrile] | 10.1
CCn1cc(-c2c(F)cccc2[C@@H]2CN(C(=O)/C=C/CN[C@@H]3CCOC3)Cc3sc(C#N)cc32)c(C(F)(F)F)n1 [Example 55, (S)-4-(2-(1-ethyl-3-(trifluoromethyl)-1 H-pyrazol-4-yl)-3-fluorophenyl)-6-((E)-4-(((R)-tetrahydrofuran-3-yl)amino)but-2-enoyl)-4,5,6,7-tetrahydrothieno[2,3-c]pyridine-2-carbonitrile] | 1.66
CCn1cc(-c2c(F)cccc2[C@@H]2CN(C(=O)/C=C/CN[C@H]3CCOC3)Cc3sc(C#N)cc32)c(C(F)(F)F)n1 [Example 56, (S)-4-(2-(1-ethyl-3-(trifluoromethyl)-1 H-pyrazol-4-yl)-3-fluorophenyl)-6-((E)-4-(((S)-tetrahydrofuran-3-yl)amino)but-2-enoyl)-4,5,6,7-tetrahydrothieno[2,3-c]pyridine-2-carbonitrile] | 1.09
CCn1cc(-c2c(F)cccc2[C@@H]2CN(C(=O)/C=C/CNC3CCN(C(C)=O)CC3)Cc3sc(C#N)cc32)c(C(F)(F)F)n1 [Example 57, (S, E)-6-(4-((1-acetylpiperidin-4-yl)amino)but-2-enoyl)-4-(2-(1-ethyl-3-(trifluoromethyl)-1 H-pyrazol-4-yl)-3-fluorophenyl)-4,5,6,7-tetrahydrothieno[2,3-c]pyridine-2-carbonitrile] | > 25
CCn1cc(-c2c(F)cccc2[C@@H]2CN(C(=O)/C=C/CNC3CCN(C(C)=O)C3)Cc3sc(C#N)cc32)c(C(F)(F)F)n1 (stereo partly drawn) [Example 58, (4S)-6-((E)-4-((1-acetylpyrrolidin-3-yl)amino)but-2-enoyl)-4-(2-(1-ethyl-3-(trifluoromethyl)-1 H-pyrazol-4-yl)-3-fluorophenyl)-4,5,6,7-tetrahydrothieno[2,3-c]pyridine-2-carbonitrile] | 6.06
C=C(CO)C(=O)N1Cc2sc(C#N)cc2[C@H](c2ccccc2-c2cn(CC)nc2C(F)(F)F)C1 [Example 62, (S)-4-(2-(1-Ethyl-3-(trifluoromethyl)-1 H pyrazol-4-yl)phenyl)-6-(2-(hydroxymethyl)acryloyl)-4,5,6,7-tetrahydrothieno[2,3-c]pyridine-2-carbonitrile] | > 25
C=C(C(=O)N1Cc2sc(C#N)cc2[C@H](c2ccccc2-c2cn(CC)nc2C(F)(F)F)C1)c1ccccc1 [Example 63, (S)-4-(2-(1-Ethyl-3-(trifluoromethyl)-1H pyrazol-4-yl)phenyl)-6-(2-phenylacryloyl)-4,5,6,7-tetrahydrothieno[2,3-c]pyridine-2-carbonitrile] | > 25
CCn1cc(-c2ccccc2[C@@H]2CN(C(=O)/C=C/[C@H](N)CO)Cc3sc(C#N)cc32)c(C(F)(F)F)n1 [Example 73, (S)-6-((S,E)-4-Amino-5-hydroxypent-2-enoyl)-4-(2-(1-ethyl-3-(trifluoromethyl)-1H pyrazol-4-yl)phenyl)-4,5,6,7-tetrahydrothieno[2,3-c]pyridine-2-carbonitrile] | 21.9
CCn1cc(-c2ccccc2[C@@H]2CN(C(=O)/C=C/C3COCCN3)Cc3sc(C#N)cc32)c(C(F)(F)F)n1 (stereo partly drawn) [Example 76, (4S)-4-(2-(1-Ethyl-3-(trifluoromethyl)-1 H-pyrazol-4-yl)phenyl)-6-((E)-3-(morpholin-3-yl)acryloyl)-4,5,6,7-tetrahydrothieno[2,3-c]pyridine-2-carbonitrile] | 14.7
CCn1cc(-c2ccccc2[C@@H]2CN(C(=O)/C=C/C(C)NC)Cc3sc(C#N)cc32)c(C(F)(F)F)n1 (stereo partly drawn) [Example 77, (4S)-4-(2-(1-Ethyl-3-(trifluoromethyl)-1 H pyrazol-4-yl)phenyl)-6-((E)-4-(methylamino)pent-2-enoyl)-4,5,6,7-tetrahydrothieno[2,3-c]pyridine-2-carbonitrile] | 9.55
CCn1cc(-c2ccccc2[C@@H]2CN(C(=O)/C=C/[C@H]3CCC(C)(C)N3)Cc3sc(C#N)cc32)c(C(F)(F)F)n1 [Example 78, (S)-6-((E)-3-((R)-5,5-Dimethylpyrrolidin-2-yl)acryloyl)-4-(2-(1-ethyl-3-(trifluoromethyl)-1H pyrazol-4-yl)phenyl)-4,5,6,7-tetrahydrothieno[2,3-c]pyridine-2-carbonitrile] | 6
CCn1cc(-c2ccccc2[C@@H]2CN(C(=O)/C=C/[C@@H](COC)NC)Cc3sc(C#N)cc32)c(C(F)(F)F)n1 [Example 85, (S)-4-(2-(1-Ethyl-3-(trifluoromethyl)-1 H-pyrazol-4-yl)phenyl)-6-((S, E)-5-methoxy-4-(methylamino)pent-2-enoyl)-4,5,6,7-tetrahydrothieno[2,3-c]pyridine-2-carbonitrile] | > 25
